Measurements: patent US20260138976A1 (Hoffmann-La Roche Inc., priority 2022, published 2026)

Tested on: primary human T-cells
Assay: Proliferation assay (5 days, CellTiter-Glo, CD3-stimulated T-cells)
Assay type: cell-based
Settings: for Emax proliferation (% activation): CD3 condition, normalised to DMSO (neutral) and 20 μM reference compound A1 = 100%; for EC50: Homo sapiens, T-cell, 120 h, CD3-stimulated primary human T-cells, 5 days, CellTiter-Glo, fitted sigmoidal curve, read-out: Tcell Proliferation CD3 EC50
Summary of the method: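 Proliferation read-out: ATP luminescence (CellTiter-Glo 2.0) at day 5 in expanded primary human T-cells on CD3 antibody-coated plates, with PBS-only plates as a counter screen. Compounds in 5–6 pt series (factor 3.333, top 20 or 10 μM final). Values are normalized to DMSO (neutral) and 20 μM reference A1 (100%), from sigmoidal fits.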

Row | Compound | Emax proliferation (% activation) | EC50 [nM]
1 | N[C@H]1CS(=O)(=O)c2ccc(-c3noc(C4(N)COC4)n3)cc2N(Cc2ccc(-c3noc(C(F)(F)F)n3)cc2)C1=O [Example 84, (3R)-3-amino-7-[5-(3-aminooxetan-3-yl)-1,2,4-oxadiazol-3-yl]-1,1-dioxo-5-[[4-[5-(trifluoromethyl)-1,2,4-oxadiazol-3-yl]phenyl]methyl]-2,3-dihydro-1lambda6,5-benzothiazepin-4-one] | 151 | 1750
2 | N[C@H]1CS(=O)(=O)c2ccc(-c3noc(-c4cccnc4Cl)n3)cc2N(Cc2ccc(-c3noc(C4CC4)n3)cc2)C1=O [Example 85, (3R)-3-amino-7-[5-(2-chloro-3-pyridyl)-1,2,4-oxadiazol-3-yl]-5-[[4-(5-cyclopropyl-1,2,4-oxadiazol-3-yl)phenyl]methyl]-1,1-dioxo-2,3-dihydro-1λ^6,5-benzothiazepin-4-one] | 62 | 8170
3 | Cc1nc(F)ccc1-c1nc(-c2ccc3c(c2)N(Cc2ccc(-c4noc(C5CC5)n4)cc2)C(=O)[C@@H](N)CS3(=O)=O)no1 [Example 86, (3R)-3-amino-5-[[4-(5-cyclopropyl-1,2,4-oxadiazol-3-yl)phenyl]methyl]-7-[5-(6-fluoro-2-methyl-3-pyridyl)-1,2,4-oxadiazol-3-yl]-1,1-dioxo-2,3-dihydro-1λ^6,5-benzothiazepin-4-one] | 99 | 1660
4 | N[C@H]1CS(=O)(=O)c2ccc(-c3noc(-c4cccnc4C(F)(F)F)n3)cc2N(Cc2ccc(-c3noc(C4CC4)n3)cc2)C1=O [Example 87, (3R)-3-amino-5-[[4-(5-cyclopropyl-1,2,4-oxadiazol-3-yl)phenyl]methyl]-1,1-dioxo-7-[5-[2-(trifluoromethyl)-3-pyridyl]-1,2,4-oxadiazol-3-yl]-2,3-dihydro-1λ^6,5-benzothiazepin-4-one] | 106 | 3620
5 | CC(C)(C)c1nnc(-c2ccc3c(c2)N(Cc2ccc(-c4nc(C(F)(F)F)co4)cc2)C(=O)[C@@H](N)CS3(=O)=O)o1 [Example 89, (3R)-3-amino-7-(5-tert-butyl-1,3,4-oxadiazol-2-yl)-1,1-dioxo-5-[[4-[4-(trifluoromethyl)oxazol-2-yl]phenyl]methyl]-2,3-dihydro-1λ^6,5-benzothiazepin-4-one] | 153 | 203
6 | CC(C)(C)c1nnc(-c2ccc3c(c2)N(Cc2ccc(-n4cnc(C(F)(F)F)n4)cc2)C(=O)[C@@H](N)CS3(=O)=O)o1 [Example 91, (3R)-3-amino-7-(5-tert-butyl-1,3,4-oxadiazol-2-yl)-1,1-dioxo-5-[[4-[3-(trifluoromethyl)-1,2,4-triazol-1-yl]phenyl]methyl]-2,3-dihydro-126,5-benzothiazepin-4-one] | 127 | 404
7 | N[C@H]1CS(=O)(=O)c2ccc(-c3nnc(C4(C5CC5)CCCO4)o3)cc2N(Cc2ccc(-c3nnc(C(F)(F)F)o3)cc2)C1=O (stereo partly drawn) [Example 97, (3R)-3-amino-7-[5-(2-cyclopropyltetra-hydrofuran-2-yl)-1,3,4-oxadiazol-2-yl]-1,1-dioxo-5-[[4-[5-(trifluoromethyl)-1,3,4-oxadiazol-2-yl]phenyl]methyl]-2,3-dihydro-1λ6,5-benzothiazepin-4-one] | 96 | 375
8 | CC(c1nc(-c2ccc(CN3C(=O)[C@@H](N)CS(=O)(=O)c4ccc(-c5nnc(C6(N)CCCCC6)o5)cc43)cc2)no1)C(F)(F)F (stereo partly drawn) [Example 98, (3R)-3-amino-7-[5-(1-aminocyclohexyl)-1,3,4-oxadiazol-2-yl]-1,1-dioxo-5-[[4-[5-(2,2,2-trifluoro-1-methyl-ethyl)-1,2,4-oxadiazol-3-yl]phenyl]methyl]-2,3-dihydro-1λ^6,5-benzothiazepin-4-one] | 97 | 1820
9 | CC(C)(C#N)c1nnc(-c2ccc3c(c2)N(Cc2ccc(-n4ccc(C(F)(F)F)n4)cc2)C(=O)[C@@H](N)CS3(=O)=O)o1 [Example 121, 2-[5-[(3R)-3-amino-1,1,4-trioxo-5-[[4-[3-(trifluoromethyl)pyrazol-1-yl]phenyl]methyl]-2,3-dihydro-1λ^6,5-benzothiazepin-7-yl]-1,3,4-oxadiazol-2-yl]-2-methyl-propanenitrile] | 160 | 1090
10 | CC1(c2nnc(-c3ccc4c(c3)N(Cc3ccc(-c5noc(C(F)(F)F)n5)cc3)C(=O)[C@@H](N)CS4(=O)=O)o2)COC1 [Example 149, (3R)-3-amino-7-[5-(3-methyloxetan-3-yl)-1,3,4-oxadiazol-2-yl]-1,1-dioxo-5-[[4-[5-(trifluoromethyl)-1,2,4-oxadiazol-3-yl]phenyl]methyl]-2,3-dihydro-1λ^6,5-benzothiazepin-4-one] | 118 | 1210
11 | CC1(c2nnc(-c3ccc4c(c3)N(Cc3ccc(-c5ccc(C(F)(F)F)cn5)cc3)C(=O)[C@@H](N)CS4(=O)=O)o2)COC1 [Example 150, (3R)-3-amino-7-[5-(3-methyloxetan-3-yl)-1,3,4-oxadiazol-2-yl]-1,1-dioxo-5-[[4-[5-(trifluoromethyl)-2-pyridyl]phenyl]methyl]-2,3-dihydro-1λ^6,5-benzothiazepin-4-one] | 79 | 656
12 | C[C@@](N)(c1nnc(-c2ccc3c(c2)N(Cc2ccc(-n4ccc(C(F)(F)F)n4)cc2)C(=O)[C@@H](N)CS3(=O)=O)o1)C(F)(F)F [Example 157, (3R)-3-amino-7-[5-[(1R)-1-amino-2,2,2-trifluoro-1-methyl-ethyl]-1,3,4-oxadiazol-2-yl]-1,1-dioxo-5-[[4-[3-(trifluoromethyl)pyrazol-1-yl]phenyl]methyl]-2,3-dihydro-1λ^6,5-benzothiazepin-4-one] | 130 | 600
13 | COC(=O)N1CC2CC(c3nnc(-c4ccc5c(c4)N(Cc4ccc(-c6ccc(C(F)(F)F)cn6)cc4)C(=O)[C@@H](N)CS5(=O)=O)o3)(C2)C1 [Example 159, methyl 1-[5-[(3R)-3-amino-1,1,4-trioxo-5-[[4-[5-(trifluoromethyl)-2-pyridyl]phenyl]methyl]-2,3-dihydro-1λ^6,5-benzothiazepin-7-yl]-1,3,4-oxadiazol-2-yl]-3-azabicyclo[3.1.1]heptane-3-carboxylate] | 146 | 152
14 | N[C@H]1CS(=O)(=O)c2ccc(-c3nnc(N4CCC(F)(F)CC4)o3)cc2N(Cc2ccc(-c3nc(C(F)(F)F)no3)cc2)C1=O [Example 161, (3R)-3-amino-7-[5-(4,4-difluoro-1-piperidyl)-1,3,4-oxadiazol-2-yl]-1,1-dioxo-5-[[4-[3-(trifluoromethyl)-1,2,4-oxadiazol-5-yl]phenyl]methyl]-2,3-dihydro-1λ^6,5-benzothiazepin-4-one] | 178 | 327
15 | N#CC1CN(c2nnc(-c3ccc4c(c3)N(Cc3ccc(-c5noc(C(F)(F)F)n5)cc3)C(=O)[C@@H](N)CS4(=O)=O)o2)CCO1 (stereo partly drawn) [Example 163, 4-[5-[(3R)-3-amino-1,1,4-trioxo-5-[[4-[5-(trifluoromethyl)-1,2,4-oxadiazol-3-yl]phenyl]methyl]-2,3-dihydro-1λ^6,5-benzothiazepin-7-yl]-1,3,4-oxadiazol-2-yl]morpholine-2-carbonitrile] | 106 | 6440
16 | COCC1CN(c2nnc(-c3ccc4c(c3)N(Cc3ccc(-c5noc(C(F)(F)F)n5)cc3)C(=O)[C@@H](N)CS4(=O)=O)o2)CCO1 (stereo partly drawn) [Example 164, (3R)-3-amino-7-[5-[2-(methoxymethyl)morpholin-4-yl]-1,3,4-oxadiazol-2-yl]-1,1-dioxo-5-[[4-[5-(trifluoromethyl)-1,2,4-oxadiazol-3-yl]phenyl]methyl]-2,3-dihydro-1λ^6,5-benzothiazepin-4-one] | 86 | 390
17 | CC(C)(c1nnc(-c2ccc3c(c2)N(Cc2ccc(-c4noc(C(F)(F)F)n4)cc2)C(=O)[C@@H](N)CS3(=O)=O)o1)C(F)(F)F [Example 166] | 164 | 75.9
18 | CC(C)(c1nnc(-c2ccc3c(c2)N(Cc2ccc(-c4noc(C5CC5)n4)cc2)C(=O)[C@@H](N)CS3(=O)=O)o1)C(F)(F)F [Example 167, (3R)-3-amino-5-[[4-(5-cyclopropyl-1,2,4-oxadiazol-3-yl)phenyl]methyl]-1,1-dioxo-7-[5-(2,2,2-trifluoro-1,1-dimethyl-ethyl)-1,3,4-oxadiazol-2-yl]-2,3-dihydro-1λ^6,5-benzothiazepin-4-one] | 186 | 629
19 | CCC(O)(c1nnc(-c2ccc3c(c2)N(Cc2ccc(-c4noc(C5CC5)n4)cc2)C(=O)[C@@H](N)CS3(=O)=O)o1)C(F)(F)F (stereo partly drawn) [Example 169] | 106 | 833
20 | CCN1CC(c2nnc(-c3ccc4c(c3)N(Cc3ccc(-c5noc(C(C)(C)C)n5)cc3)C(=O)[C@@H](N)CS4(=O)=O)o2)CC(F)(F)C1 (stereo partly drawn) [Example 181, (3R)-3-amino-5-[[4-(5-tert-butyl-1,2,4-oxadiazol-3-yl)phenyl]methyl]-7-[5-(1-ethyl-5,5-difluoro-3-piperidyl)-1,3,4-oxadiazol-2-yl]-1,1-dioxo-2,3-dihydro-1λ^6,5-benzothiazepin-4-one] | 105 | 718
21 | COCCN1CC(c2nnc(-c3ccc4c(c3)N(Cc3ccc(-c5noc(C(F)(F)F)n5)cc3)C(=O)[C@@H](N)CS4(=O)=O)o2)CC(F)(F)C1 (stereo partly drawn) [Example 182, (3R)-3-amino-7-[5-[5,5-difluoro-1-(2-methoxyethyl)-3-piperidyl]-1,3,4-oxadiazol-2-yl]-1,1-dioxo-5-[[4-[5-(trifluoromethyl)-1,2,4-oxadiazol-3-yl]phenyl]methyl]-2,3-dihydro-1λ^6,5-benzothiazepin-4-one] | 175 | 1270
